Measurements taken from patent EP0254179A2, “Tetrahydrobenzothiazoloquinolines, their preparation and use” (BOEHRINGER INGELHEIM KG, priority 1986, dated 1988).

Each molecule was assayed on präsynaptischer Dopaminrezeptoren (assay: Inhibition of exploratory activity (light-beam interruptions by groups of 5 mice)). Details: 10 mg/kg subcutaneous, measured 1 hour after injection over 5 minutes, versus saline controls.
Assay type: in vivo, Mäusen
Description: (§1) Im Vergleich zu der bekannten racemischen Verbindung 6-Methyl-9-amino-5,6,6a,7-tetrahydro-4H-benzo[de]thiazolo[4,-5-g] chinolin wurden daher beispielsweise die Verbindungen ((-)-Enantiomere) • a= 9-Amino-5,6,6a,7-tetrahydro-4H-benzo[de]thiazolo[4,5-g] chinolin • b= 6-Ethyl-9-amino-5,6,6a,7-tetrahydro-4H-benzo[de]-thiazolo[4,5-g]chinolin. • c= 6-Propyl-9-amino-5,6,6a,7-tetrahydro-4H-benzo[de]-thiazolo[4,5-g]chinolin • d= 6-Methyl-9-benzylamino-5,6,6a,7-tetrahydro-4H-benzo[de]-thiazolo[4,5-g]chinolin • e= 6-Ethyl-9-methylamino-5,6,6a,7-tetrahydro-4H-benzo[de]-thiazolo[4,5-g]chinolin • f= 6-Ethyl-9-dimethylamino-5,6,6a,7-tetrahydro-4H-benzo[de]thiazolo[4,5-g]chinolin. hinsichtlich ihrer Beeinflussung präsynaptischer Dopaminrezeptoren untersucht, wobei zunächst die Wirkung auf die exploratorische Aktivität von Mäusen getestet und anschließend die Beeinflussung der Dopaminutilisation und der Dopaminsynthese an Ratten wie folgt bestimmt wurden:
Die Aktititätsmessung erfolgte in Beobachtungskäfigen, die mit einer Infrarotlichtschranke versehen sind. Gemessen wird die Häufigkeit der Unterbrechung des Lichtstrahles durch eine Gruppe von 5 Mäusen innerhalb von 5 Minuten. Gruppen von jeweils 5 Tieren erhalten die zu untersuchende Substanz in einer Dosis von 10 mg/kg subkutan injiziert. 1 Stunde später werden die Tiere in die Beobachtungskäfige gebracht, wo sofort mit der Messung der exploratorischen Aktivität über 5 Minuten begonnen wird. Parallel bzw. alternierend zu Gruppen, die mit Testsubstanz behandelt wurden, werden kochsalzbehandelte Kontrollgruppen (o,9%ig; 0,1 ml/10 g Körpergewicht subkutan) untersucht.
Alle diejenigen Substanzen wurden in die weitere Versuchsreihe aufgenommen, die als Vorbedingung eine Hemmung der exploratorischen Aktivität gegenüber den Kontrolltieren von >50% aufwiesen, wie es beispielsweise für die oben näher bezeichneten Verbindungen a,b,c,d,e, und f nachzuweisen war.
In the case of Nc1nc2c(s1)CC1NCCc3cccc-2c31 (stereo not drawn) [a, 9-Amino-5,6,6a,7-tetrahydro-4H-benzo[de]thiazolo[4,5-g] chinolin], the “Hemmung der exploratorischen Aktivität gegenüber den Kontrolltieren” value is reported as > 50%. CN1CCc2cccc3c2C1Cc1sc(NCc2ccccc2)nc1-3 (stereo not drawn) [d, 6-Methyl-9-benzylamino-5,6,6a,7-tetrahydro-4H-benzo[de]thiazolo[4,5-g]chinolin] was tested, and the “Hemmung der exploratorischen Aktivität gegenüber den Kontrolltieren” value was > 50%. CCCN1CCc2cccc3c2C1Cc1sc(N)nc1-3 (stereo not drawn) [c, 6-Propyl-9-amino-5,6,6a,7-tetrahydro-4H-benzo[de]thiazolo[4,5-g]chinolin] was tested, and the “Hemmung der exploratorischen Aktivität gegenüber den Kontrolltieren” value was > 50%. In the case of CCN1CCc2cccc3c2C1Cc1sc(N(C)C)nc1-3 (stereo not drawn) [f, 6-Ethyl-9-dimethylamino-5,6,6a,7-tetrahydro-4H-benzo[de]thiazolo[4,5-g]chinolin], the “Hemmung der exploratorischen Aktivität gegenüber den Kontrolltieren” value is reported as > 50%. With CCN1CCc2cccc3c2C1Cc1sc(N)nc1-3 (stereo not drawn) [b, 6-Ethyl-9-amino-5,6,6a,7-tetrahydro-4H-benzo[de]thiazolo[4,5-g]chinolin] the “Hemmung der exploratorischen Aktivität gegenüber den Kontrolltieren” value was > 50%. With CCN1CCc2cccc3c2C1Cc1sc(NC)nc1-3 (stereo not drawn) [e, 6-Ethyl-9-methylamino-5,6,6a,7-tetrahydro-4H-benzo[de]thiazolo[4,5-g]chinolin] the “Hemmung der exploratorischen Aktivität gegenüber den Kontrolltieren” value was > 50%.

The molecules below were run on präsynaptischer Dopaminrezeptoren (assay: Determination of dopamine utilisation after AMPT treatment (whole-brain dopamine by HPLC with electrochemical detection)). Details: rats; 10 mg/kg s.c. at 0 and 2 hours; AMPT 250 mg/kg intraperitoneal; brains taken at 4 hours.
Assay type: in vivo, Ratten
Description: as §1
Die Dopaminutilisation wurde an Ratten gemessen. Bei Tieren, die mit α-Methylparatyrosin (AMPT) (250 mg/kg intraperitoneal) behandelt werden, fällt die Dopaminkonzentration im Gesamthirn mit fortschreitender Versuchsdauer ab. Durch Substanzen, die an Autorezeptoren wirken, kann der Dopaminabfall (im Vergleich zu mit Kochsalzlösung behandelten Kontrolltieren) vermindert werden.
Die Testsubstanzen werden zum Zeitpunkt 0 und 2 Stunden des Experiments - soweit nicht anders angegeben - zur Erstellung einer Dosis-Wirkungskurve mit 0,01 bis 10 mg/kg s.c. appliziert. Zum Zeitpunkt 4 Stunden des Experiments werden die Tiere getötet und die Gehirne der Dopaminbestimmung mittels Hochdruckflüssigkeitchromatographie mit elektrochemischer Detektion zugeführt. Bestimmt wird die durch die Testsubstanz bewirkte prozentuelle Steigerung der Dopaminutilisation nach AMPT-Behandlung.
CCCN1CCc2cccc3c2C1Cc1sc(N)nc1-3 (stereo not drawn) [c, 6-Propyl-9-amino-5,6,6a,7-tetrahydro-4H-benzo[de]thiazolo[4,5-g]chinolin] was tested, and the “Prozentuale Steigerung der Dopaminutilisation” value was 112%. CCN1CCc2cccc3c2C1Cc1sc(N)nc1-3 (stereo not drawn) [b, 6-Ethyl-9-amino-5,6,6a,7-tetrahydro-4H-benzo[de]thiazolo[4,5-g]chinolin] was tested, and the “Prozentuale Steigerung der Dopaminutilisation” value was 64%. With CN1CCc2cccc3c2C1Cc1sc(N)nc1-3 (racemic) [Vergleich, 6-Methyl-9-amino-5,6,6a,7-tetrahydro-4H-benzo[de]thiazolo[4,5-g] chinolin, reference compound] the “Prozentuale Steigerung der Dopaminutilisation” value was 34%.
